Assay results published in ChEMBL document CHEMBL3046845, “A facile synthesis of novel optically active R,R-2-(4-(2-(4-(5-chloro-3-halo-pyridin-2-yloxy)-phenoxy)-propionyloxy)-phenoxy)-propionic acid esters using cyanuric chloride as potential herbicide” (Chin Chem Lett, 2011).

Key:
[1] = Phytotoxicity against Triticum aestivum (wheat) assessed as growth inhibition at 125 g/ha after 3 weeks relative to control; assay type: organism-based; details: in vivo, read-out: GI
[2] = test system: Alopecurus myosuroides; assay: Herbicidal activity against Alopecurus myosuroides assessed as growth inhibition at 125 g/ha after 3 weeks relative to control; assay type: functional; details: 504 h, read-out: GI
[3] = Phytoxicity against Hordeum vulgare (barley) assessed as growth inhibition at 125 g/ha after 3 weeks relative to control; assay type: organism-based; details: in vivo, read-out: GI
[4] = test system: Echinochloa crus-galli; assay: Herbicidal activity against Echinochloa crus-galli (barnyard grass) assessed as growth inhibition at 125 g/ha after 3 weeks relative to control; assay type: functional; details: 504 h, read-out: GI
[5] = test system: Avena fatua; assay: Herbicidal activity against Avena fatua assessed as growth inhibition at 125 g/ha after 3 weeks relative to control; assay type: functional; details: 504 h, read-out: GI

Work on `COC(=O)[C@@H](C)Oc1ccc(Oc2ncc(Cl)cc2F)cc1` yielded an inhibition at 504 h [1] of 10%, an inhibition of growth at 125 g/ha [2] of 75% and an inhibition at 504 h [3] of 35%. For the same molecule, the inhibition of growth at 125 g/ha [4] was 80% and the inhibition of growth at 125 g/ha [5] was 90%.

For `COC(=O)[C@@H](C)Oc1ccc(OC(=O)[C@@H](C)Oc2ccc(Oc3ncc(Cl)cc3F)cc2)cc1`, the inhibition at 504 h [1] was 0%, the inhibition of growth at 125 g/ha [2] was 80% and the inhibition at 504 h [3] was 10%. For the same molecule, the inhibition of growth at 125 g/ha [4] was 80% and the inhibition of growth at 125 g/ha [5] was 90%.

Work on `CCOC(=O)[C@@H](C)Oc1ccc(Oc2ncc(Cl)cc2F)cc1` yielded an inhibition at 504 h [1] of 5%, an inhibition of growth at 125 g/ha [2] of 82% and an inhibition at 504 h [3] of 27%. It also gave an inhibition of growth at 125 g/ha [4] of 75% and an inhibition of growth at 125 g/ha [5] of 90%.

`CCOC(=O)[C@@H](C)Oc1ccc(OC(=O)[C@@H](C)Oc2ccc(Oc3ncc(Cl)cc3F)cc2)cc1` gave an inhibition at 504 h [1] of 0%, an inhibition of growth at 125 g/ha [2] of 90% and an inhibition at 504 h [3] of 10%. For the same molecule, the inhibition of growth at 125 g/ha [4] was 80% and the inhibition of growth at 125 g/ha [5] was 93%.

With `CCCOC(=O)[C@@H](C)Oc1ccc(Oc2ncc(Cl)cc2F)cc1` the inhibition at 504 h [1] was 10%, the inhibition of growth at 125 g/ha [2] was 76% and the inhibition at 504 h [3] was 35%. It also gave an inhibition of growth at 125 g/ha [4] of 62% and an inhibition of growth at 125 g/ha [5] of 84%.

`CCCOC(=O)[C@@H](C)Oc1ccc(OC(=O)[C@@H](C)Oc2ccc(Oc3ncc(Cl)cc3F)cc2)cc1` showed an inhibition at 504 h [1] of 0%, an inhibition of growth at 125 g/ha [2] of 79% and an inhibition at 504 h [3] of 15%. It also gave an inhibition of growth at 125 g/ha [4] of 70% and an inhibition of growth at 125 g/ha [5] of 89%.

For `CC(C)OC(=O)[C@@H](C)Oc1ccc(Oc2ncc(Cl)cc2F)cc1`, the inhibition at 504 h [1] was 10%, the inhibition of growth at 125 g/ha [2] was 73% and the inhibition at 504 h [3] was 30%. For the same molecule, the inhibition of growth at 125 g/ha [4] was 57% and the inhibition of growth at 125 g/ha [5] was 81%.

In the case of `CC(C)OC(=O)[C@@H](C)Oc1ccc(OC(=O)[C@@H](C)Oc2ccc(Oc3ncc(Cl)cc3F)cc2)cc1`, the inhibition at 504 h [1] is reported as 0%, the inhibition of growth at 125 g/ha [2] is reported as 78% and the inhibition at 504 h [3] is reported as 12%. For the same molecule, the inhibition of growth at 125 g/ha [4] was 65% and the inhibition of growth at 125 g/ha [5] was 85%.

`CCCCOC(=O)[C@@H](C)Oc1ccc(Oc2ncc(Cl)cc2F)cc1` showed an inhibition at 504 h [1] of 15%, an inhibition of growth at 125 g/ha [2] of 54% and an inhibition at 504 h [3] of 25%. The inhibition of growth at 125 g/ha [4] was 55% and the inhibition of growth at 125 g/ha [5] was 62%.

`CCCCOC(=O)[C@@H](C)Oc1ccc(OC(=O)[C@@H](C)Oc2ccc(Oc3ncc(Cl)cc3F)cc2)cc1` gave an inhibition at 504 h [1] of 5%, an inhibition of growth at 125 g/ha [2] of 62% and an inhibition at 504 h [3] of 10%. It also gave an inhibition of growth at 125 g/ha [4] of 54% and an inhibition of growth at 125 g/ha [5] of 63%.

With `C#CCOC(=O)[C@@H](C)Oc1ccc(OC(=O)[C@@H](C)Oc2ccc(Oc3ncc(Cl)cc3F)cc2)cc1` the inhibition at 504 h [1] was 0%, the inhibition of growth at 125 g/ha [2] was 100% and the inhibition at 504 h [3] was 0%. For the same molecule, the inhibition of growth at 125 g/ha [4] was 92% and the inhibition of growth at 125 g/ha [5] was 100%.

For `COC(=O)[C@@H](C)Oc1ccc(Oc2ncc(Cl)cc2Cl)cc1`, the inhibition at 504 h [1] was 10%, the inhibition of growth at 125 g/ha [2] was 30% and the inhibition at 504 h [3] was 30%. It also gave an inhibition of growth at 125 g/ha [4] of 40% and an inhibition of growth at 125 g/ha [5] of 30%.

`COC(=O)[C@@H](C)Oc1ccc(OC(=O)[C@@H](C)Oc2ccc(Oc3ncc(Cl)cc3Cl)cc2)cc1` showed an inhibition at 504 h [1] of 0%, an inhibition of growth at 125 g/ha [2] of 42% and an inhibition at 504 h [3] of 15%. It also gave an inhibition of growth at 125 g/ha [4] of 44% and an inhibition of growth at 125 g/ha [5] of 43%.

Work on `CCOC(=O)[C@@H](C)Oc1ccc(Oc2ncc(Cl)cc2Cl)cc1` yielded an inhibition at 504 h [1] of 10%, an inhibition of growth at 125 g/ha [2] of 45% and an inhibition at 504 h [3] of 25%. For the same molecule, the inhibition of growth at 125 g/ha [4] was 51% and the inhibition of growth at 125 g/ha [5] was 50%.

`CCOC(=O)[C@@H](C)Oc1ccc(OC(=O)[C@@H](C)Oc2ccc(Oc3ncc(Cl)cc3Cl)cc2)cc1` gave an inhibition at 504 h [1] of 0%, an inhibition of growth at 125 g/ha [2] of 52% and an inhibition at 504 h [3] of 15%. It also gave an inhibition of growth at 125 g/ha [4] of 54% and an inhibition of growth at 125 g/ha [5] of 54%.

`CCCOC(=O)[C@@H](C)Oc1ccc(Oc2ncc(Cl)cc2Cl)cc1` showed an inhibition at 504 h [1] of 15%, an inhibition of growth at 125 g/ha [2] of 35% and an inhibition at 504 h [3] of 18%. For the same molecule, the inhibition of growth at 125 g/ha [4] was 40% and the inhibition of growth at 125 g/ha [5] was 45%.

With `CCCOC(=O)[C@@H](C)Oc1ccc(OC(=O)[C@@H](C)Oc2ccc(Oc3ncc(Cl)cc3Cl)cc2)cc1` the inhibition at 504 h [1] was 0%, the inhibition of growth at 125 g/ha [2] was 36% and the inhibition at 504 h [3] was 10%. The inhibition of growth at 125 g/ha [4] was 45% and the inhibition of growth at 125 g/ha [5] was 50%.

In the case of `C#CCOC(=O)[C@@H](C)Oc1ccc(Oc2ncc(Cl)cc2Cl)cc1`, the inhibition at 504 h [1] is reported as 0%, the inhibition of growth at 125 g/ha [2] is reported as 57% and the inhibition at 504 h [3] is reported as 20%. It also gave an inhibition of growth at 125 g/ha [4] of 45% and an inhibition of growth at 125 g/ha [5] of 47%.

With `C#CCOC(=O)[C@@H](C)Oc1ccc(OC(=O)[C@@H](C)Oc2ccc(Oc3ncc(Cl)cc3Cl)cc2)cc1` the inhibition at 504 h [1] was 0%, the inhibition of growth at 125 g/ha [2] was 60% and the inhibition at 504 h [3] was 5%. The inhibition of growth at 125 g/ha [4] was 53% and the inhibition of growth at 125 g/ha [5] was 50%.

Molecule `C#CCOC(=O)[C@@H](C)Oc1ccc(Oc2ncc(Cl)cc2F)cc1` [CLODINAFOP PROPARGYL] has an inhibition at 504 h [1] of 0%, an inhibition of growth at 125 g/ha [2] of 88% and an inhibition at 504 h [3] of 20%. The inhibition of growth at 125 g/ha [4] was 82% and the inhibition of growth at 125 g/ha [5] was 95%.
